Measurements as given in US20240034743A9, “TRICYCLIC COMPOUNDS AS EGFR INHIBITORS” (QILU PHARMACEUTICAL CO., LTD., priority 2020, published 2024).
Like-named read-outs stand apart in the source and are kept apart here.

How the values were obtained:
[1] = test system: Ba/F3_L858R/T790M/C797S cells; assay: Ba/F3_L858R/T790M/C797S cell proliferation inhibition assay (CellTiter-Glo); assay type: cell-based; conditions: Mus musculus
In short: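 Ba/F3 cells engineered to carry EGFR L858R/T790M/C797S, seeded at 700 cells/well, exposed to serially diluted compound (0.1% DMSO final) for 72 h at 37 °C, 5% CO2. Viability read by CellTiter-Glo luminescence after 30 min at room temperature; IC50 from dose-response fit.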

EGFR WT (wild type EGFR) = EGFR WT (wild type EGFR) (Homo sapiens (Human), UniProt P00533); assay: In vitro enzymatic TR-FRET (HTRF KinEASE-TK) kinase assay, EGFR WT; assay type: biochemical
In short: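 Recombinant enzyme preincubated with compound 10 min at room temperature in kinase buffer with 5 mM MgCl2, 1 mM MnCl2, 1 mM DTT. Biotinylated TK substrate plus ATP then added for 40 min. HTRF detection (Sa-XL665, Cryptate antibody) for 1 h; IC50 from 665/615 nm ratio.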

[2] = test system: Ba/F3_Del19/T790M/C797S cells; assay: Ba/F3_Del19/T790M/C797S cell proliferation inhibition assay (CellTiter-Glo); assay type: cell-based; conditions: Mus musculus
In short: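 Ba/F3 cells carrying EGFR Del19/T790M/C797S were seeded at 700 cells/well and exposed to serially diluted compound (0.1% DMSO final) for 72 h at 37° C. Viability was read by CellTiter-Glo luminescence to give IC50.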

A431 cells (EGFR WT) = assay: A431 cell proliferation inhibition assay (CellTiter-Glo); assay type: cell-based; conditions: Homo sapiens
In short: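 Seeded cells grown 24 h, then exposed 72 h (37° C, 5% CO2) to graded compound dilutions at 0.1% DMSO final. Viability read by CellTiter-Glo luminescence after 30 min at room temperature; IC50 fitted from the dose curve.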

[3] = BaF3, cell proliferation, 72 h, CellTiter-Glo, read-out: Ba/F3 (L858R/T790M/C797S) IC50
[4] = kinase activity, TR-FRET, read-out: EGFR (WT) IC50
[5] = BaF3, cell proliferation, 72 h, CellTiter-Glo, read-out: Ba/F3 (Del19/T790M/C797S) IC50
[6] = A-431, cell proliferation, 72 h, CellTiter-Glo, read-out: A431 EGFR WT IC50
[7] = BaF3, 72 h, read-out: Ba/F3 (L858R/T790M/C797S) IC50(nM)
[8] = BaF3, 72 h, read-out: Ba/F3 (Del19/T790M/C797S) IC50(nM)
[9] = A-431, 72 h, read-out: A431 EGFR WT IC50(nM)

Sequence of EGFR WT (wild type EGFR) (P00533 25-1210): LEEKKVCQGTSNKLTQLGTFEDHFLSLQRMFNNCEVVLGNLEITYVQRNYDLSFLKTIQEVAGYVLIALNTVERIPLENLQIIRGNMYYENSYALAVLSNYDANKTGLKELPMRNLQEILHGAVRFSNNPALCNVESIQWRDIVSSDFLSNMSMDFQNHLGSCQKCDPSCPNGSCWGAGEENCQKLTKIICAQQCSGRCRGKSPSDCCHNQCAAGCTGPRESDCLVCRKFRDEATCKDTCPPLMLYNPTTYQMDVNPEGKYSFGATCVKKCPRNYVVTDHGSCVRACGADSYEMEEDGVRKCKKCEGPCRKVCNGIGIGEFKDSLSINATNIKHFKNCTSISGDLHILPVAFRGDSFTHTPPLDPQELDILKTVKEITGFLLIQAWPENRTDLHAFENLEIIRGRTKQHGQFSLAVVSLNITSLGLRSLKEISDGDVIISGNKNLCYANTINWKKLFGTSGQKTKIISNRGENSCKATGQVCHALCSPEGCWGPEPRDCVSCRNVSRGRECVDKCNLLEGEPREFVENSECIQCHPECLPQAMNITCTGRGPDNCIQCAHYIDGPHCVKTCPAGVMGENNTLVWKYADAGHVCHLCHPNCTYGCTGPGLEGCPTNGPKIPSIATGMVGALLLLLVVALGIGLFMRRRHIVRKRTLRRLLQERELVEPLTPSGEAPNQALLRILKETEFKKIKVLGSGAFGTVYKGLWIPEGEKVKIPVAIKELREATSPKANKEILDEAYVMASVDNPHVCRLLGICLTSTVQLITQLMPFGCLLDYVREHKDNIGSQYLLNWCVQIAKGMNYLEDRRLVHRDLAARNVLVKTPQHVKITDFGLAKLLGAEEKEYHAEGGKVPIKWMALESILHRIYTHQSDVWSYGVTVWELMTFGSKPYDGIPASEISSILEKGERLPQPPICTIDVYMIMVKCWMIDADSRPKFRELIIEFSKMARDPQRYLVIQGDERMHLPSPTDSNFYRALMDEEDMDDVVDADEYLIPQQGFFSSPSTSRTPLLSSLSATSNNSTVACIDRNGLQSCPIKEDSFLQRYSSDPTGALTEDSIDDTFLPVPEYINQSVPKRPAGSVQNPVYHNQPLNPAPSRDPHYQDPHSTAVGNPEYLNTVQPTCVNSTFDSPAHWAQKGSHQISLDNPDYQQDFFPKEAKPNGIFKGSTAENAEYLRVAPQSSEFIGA

SMILES	IC50 [1, 3]	IC50 (EGFR WT (wild type EGFR); [4])	IC50 [2, 5]	IC50 (A431 cells (EGFR WT); [6])	IC50 [1, 7]	IC50 (EGFR WT (wild type EGFR))	IC50 [2, 8]	IC50 (A431 cells (EGFR WT); [9])
COc1cc2c(cc1Nc1ncc(Br)c(Nc3ccccc3P(C)(C)=O)n1)-c1cnn(C3CCN(C)CC3)c1CCN2C(C)C [Compound 75]	50 to 100 nM	1 to 10 nM	10 to 50 nM	100 to 1000 nM	–	–	–	–
COc1nc2c(cc1Nc1ncc(Br)c(Nc3ccccc3P(C)(C)=O)n1)-c1cnn(C)c1CCN2C [Compound 79]	10 to 50 nM	10 to 50 nM	10 to 50 nM	100 to 1000 nM	–	–	–	–
COc1nc2c(cc1Nc1ncc(Br)c(Nc3ccc4nccnc4c3NS(C)(=O)=O)n1)-c1cnn(C)c1CCN2 [Compound 81]	< 10 nM	1 to 10 nM	< 10 nM	100 to 1000 nM	–	–	–	–
COc1cc2c(cc1Nc1ncc(Br)c(Nc3ccccc3P(C)(C)=O)n1)-c1cnn(C)c1CCN2C1CCOCC1 [Compound 87]	< 10 nM	1 to 10 nM	< 10 nM	100 to 1000 nM	–	–	–	–
COc1cc2c(cc1Nc1ncc(Br)c(Nc3ccccc3P(C)(C)=O)n1)-c1cnn(C)c1C(F)(F)CN2 [Compound 92]	10 to 50 nM	1 to 10 nM	< 10 nM	100 to 1000 nM	–	–	–	–
COc1cc2c(cc1Nc1ncc(C)c(Nc3ccccc3P(C)(C)=O)n1)-c1cnn(C)c1CCN2C(C)C [Compound 94]	10 to 50 nM	1 to 10 nM	10 to 50 nM	100 to 1000 nM	–	–	–	–
COc1cc2c(cc1Nc1ncc(Cl)c(Nc3ccncc3P(C)(C)=O)n1)-c1cnn(C)c1CCN2C(C)C [Compound 95]	50 to 100 nM	1 to 10 nM	10 to 50 nM	100 to 1000 nM	–	–	–	–
COc1cc2c(cc1Nc1ncc(Br)c(Nc3ccc4nccnc4c3P(C)(C)=O)n1)-c1cnn(C)c1CCN2C1CCN(C2CC(F)(F)C2)CC1 [Compound 96]	< 10 nM	1 to 10 nM	< 10 nM	100 to 1000 nM	–	–	–	–
COc1cc2c(cc1Nc1ncc(Br)c(Nc3ccncc3P(C)(C)=O)n1)-c1cnn(C)c1CCN2C(C)C [Compound 97]	10 to 50 nM	1 to 10 nM	< 10 nM	100 to 1000 nM	–	–	–	–
COc1cc2c(cc1Nc1ncc(Br)c(Nc3ccc4nccnc4c3P(C)(C)=O)n1)-c1cnn(C3COC3)c1CCN2C(C)C [Compound 98]	10 to 50 nM	1 to 10 nM	10 to 50 nM	100 to 1000 nM	–	–	–	–
COc1cc2c(cc1Nc1ncc(Cl)c(Nc3cccnc3P(C)(C)=O)n1)-c1cnn(C)c1CCN2C(C)C [Compound 100]	10 to 50 nM	1 to 10 nM	10 to 50 nM	100 to 1000 nM	–	–	–	–
COc1cc2c(cc1Nc1ncc(Br)c(Nc3ccccc3P(C)(C)=S)n1)-c1cnn(C)c1CCN2C1CCN(C)CC1 [Compound 101]	–	–	–	–	< 10 nM	1 to 10 nM	< 10 nM	100 to 1000 nM
COc1cc2c(cc1Nc1ncc(Cl)c(Nc3ccc4nccnc4c3NS(C)(=O)=O)n1)-c1cnn(C)c1CCN2C(C)C [Compound 103]	< 10 nM	1 to 10 nM	< 10 nM	100 to 1000 nM	–	–	–	–
COc1cc2c(cc1Nc1ncc(C)c(Nc3ccc4nccnc4c3NS(C)(=O)=O)n1)-c1cnn(C)c1CCN2C(C)C [Compound 104]	< 10 nM	1 to 10 nM	< 10 nM	100 to 1000 nM	–	–	–	–
COc1cc2c(cc1Nc1ncc(Br)c(Nc3ccccc3P(C)(C)=S)n1)-c1cnn(C)c1CCN2C1CCN(C(C)C)CC1 [Compound 105]	–	–	–	–	10 to 50 nM	1 to 10 nM	< 10 nM	100 to 1000 nM
COc1cc2c(cc1Nc1ncc(Br)c(Nc3ccc4nccnc4c3NC(C)=O)n1)-c1cnn(C)c1CCN2C(C)C [Compound 106]	10 to 50 nM	1 to 10 nM	< 10 nM	100 to 1000 nM	–	–	–	–
COc1cc2c(cc1Nc1ncc(Br)c(Nc3ccc4nccnc4c3C(=O)N(C)C)n1)-c1cnn(C)c1CCN2C(C)C [Compound 109]	–	1 to 10 nM	–	–	10 to 50 nM	–	10 to 50 nM	100 to 1000 nM
COc1cc2c(cc1Nc1ncc(Br)c(Nc3ccn4ccnc4c3NS(C)(=O)=O)n1)-c1cnn(C)c1CCN2C(C)C [Compound 110]	50 to 100 nM	1 to 10 nM	10 to 50 nM	100 to 1000 nM	–	–	–	–
COc1cc2c(cc1Nc1ncc(Br)c(Nc3ccnc(C)c3P(C)(C)=O)n1)-c1cnn(C)c1CCN2C(C)C [Compound 111]	10 to 50 nM	1 to 10 nM	< 10 nM	100 to 1000 nM	–	–	–	–
COc1cc2c(cc1Nc1ncc(Br)c(Nc3ccc4nccnc4c3NS(C)(=O)=O)n1)-c1cn(C)nc1CCN2C(C)C [Compound 112]	10 to 50 nM	1 to 10 nM	< 10 nM	100 to 1000 nM	–	–	–	–
COc1cc2c(cc1Nc1ncc(Br)c(Nc3ccc4nccnc4c3NS(C)(=O)=O)n1)-c1cnn(C)c1CCN2C#N [Compound 113]	10 to 50 nM	1 to 10 nM	< 10 nM	100 to 1000 nM	–	–	–	–
COc1cc2c(cc1Nc1ncc(Br)c(Nc3ccc4nccnc4c3N(C(C)C)S(C)(=O)=O)n1)-c1cnn(C)c1CCN2 [Compound 123]	–	–	–	–	< 10 nM	1 to 10 nM	< 10 nM	100 to 1000 nM
COc1cc2c(cc1Nc1ncc(Br)c(Nc3ccccc3S(=O)(=O)N(C)C)n1)-c1cnn(C)c1CCN2C(C)C [Compound 126]	100 to 1000 nM	1 to 10 nM	100 to 1000 nM	> 1000 nM	–	–	–	–
COc1cc2c(cc1Nc1ncc(Br)c(Nc3ccc(F)cc3NS(C)(=O)=O)n1)-c1cnn(C)c1CCN2C(C)C [Compound 128]	< 10 nM	1 to 10 nM	< 10 nM	> 1000 nM	–	–	–	–
CNC(=O)c1c(Nc2nc(Nc3cc4c(cc3OC)N(C(C)C)CCc3c-4cnn3C)ncc2Br)ccc2nccnc12 [Compound 129]	10 to 50 nM	1 to 10 nM	10 to 50 nM	100 to 1000 nM	–	–	–	–
COc1cc2c(cc1Nc1ncc(Br)c(Nc3ccc4nccnc4c3N(C)S(C)(=O)=O)n1)-c1cnn(C)c1CCN2C(C)C [Compound 131]	10 to 50 nM	1 to 10 nM	10 to 50 nM	> 1000 nM	–	–	–	–
